Assay results: ChEMBL document CHEMBL3992488, “Anticancer agents interacting with membrane glucose transporters” (Medchemcomm, 2016)
Positions count from the first letter of the chain named. pIC50, pKi: −log10 of the molar value. Values belong to the compound of their own block, whether it stands above or below them.

What was measured:
[1] = target: T1, Solute carrier family 2, facilitated glucose transporter member 4 (Homo sapiens, UniProt P14672); assay: Inhibition of human GLUT4 expressed in CHO cells assessed as reduction in glucose uptake; assay type: cell-based
T1 sequence (P14672 whole entry): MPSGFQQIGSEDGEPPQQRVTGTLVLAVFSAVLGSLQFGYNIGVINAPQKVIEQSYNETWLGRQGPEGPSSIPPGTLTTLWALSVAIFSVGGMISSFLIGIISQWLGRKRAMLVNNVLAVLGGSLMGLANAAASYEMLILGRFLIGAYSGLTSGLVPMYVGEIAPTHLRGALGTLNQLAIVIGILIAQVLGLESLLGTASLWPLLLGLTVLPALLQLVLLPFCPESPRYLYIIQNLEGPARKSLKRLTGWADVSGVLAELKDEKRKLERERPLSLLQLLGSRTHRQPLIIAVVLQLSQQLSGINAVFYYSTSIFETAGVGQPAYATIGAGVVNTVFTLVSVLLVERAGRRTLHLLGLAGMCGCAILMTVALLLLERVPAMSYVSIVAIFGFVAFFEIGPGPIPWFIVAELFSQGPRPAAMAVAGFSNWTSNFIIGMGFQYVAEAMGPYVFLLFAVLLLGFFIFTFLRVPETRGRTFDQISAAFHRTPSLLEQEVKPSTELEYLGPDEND

[2] = target: T2, Solute carrier family 2, facilitated glucose transporter member 1 (Homo sapiens, UniProt P11166); assay: Inhibition of human GLUT1 expressed in human DLD1 cells assessed as reduction in glucose uptake; assay type: cell-based
T2 sequence (P11166 whole entry): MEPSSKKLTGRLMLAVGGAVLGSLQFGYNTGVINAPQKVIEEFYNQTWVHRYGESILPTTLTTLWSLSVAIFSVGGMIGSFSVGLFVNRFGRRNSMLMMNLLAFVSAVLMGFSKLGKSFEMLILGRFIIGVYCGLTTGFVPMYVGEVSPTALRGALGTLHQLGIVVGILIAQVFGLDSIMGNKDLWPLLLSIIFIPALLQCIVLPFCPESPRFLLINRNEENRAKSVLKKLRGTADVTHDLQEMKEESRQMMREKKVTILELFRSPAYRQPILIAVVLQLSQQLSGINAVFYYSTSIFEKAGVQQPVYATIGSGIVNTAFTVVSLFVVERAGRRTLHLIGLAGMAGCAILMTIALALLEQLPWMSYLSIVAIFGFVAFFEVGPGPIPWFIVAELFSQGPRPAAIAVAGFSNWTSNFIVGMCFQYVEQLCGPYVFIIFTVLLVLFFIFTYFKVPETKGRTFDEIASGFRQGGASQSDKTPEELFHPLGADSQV

[3] = target: T2, Solute carrier family 2, facilitated glucose transporter member 1; assay: Inhibition of GLUT1-mediated [14C]glucose uptake in human erythrocytes; assay type: cell-based
[4] = target: T3, Solute carrier family 2, facilitated glucose transporter member 4 (Mus musculus, UniProt P14142); assay: Competitive inhibition of GLUT4 in mouse 3T3L1 cells assessed as reduction in insulin-stimulated [3H]-2-deoxy-D-glucose uptake preincubated for 20 mins followed by measured for [3H]-2-deoxy-D-glucose addition measured after 1 to 10 mins by Lineweaver-Burk plot analysis; assay type: cell-based
T3 sequence (P14142 whole entry): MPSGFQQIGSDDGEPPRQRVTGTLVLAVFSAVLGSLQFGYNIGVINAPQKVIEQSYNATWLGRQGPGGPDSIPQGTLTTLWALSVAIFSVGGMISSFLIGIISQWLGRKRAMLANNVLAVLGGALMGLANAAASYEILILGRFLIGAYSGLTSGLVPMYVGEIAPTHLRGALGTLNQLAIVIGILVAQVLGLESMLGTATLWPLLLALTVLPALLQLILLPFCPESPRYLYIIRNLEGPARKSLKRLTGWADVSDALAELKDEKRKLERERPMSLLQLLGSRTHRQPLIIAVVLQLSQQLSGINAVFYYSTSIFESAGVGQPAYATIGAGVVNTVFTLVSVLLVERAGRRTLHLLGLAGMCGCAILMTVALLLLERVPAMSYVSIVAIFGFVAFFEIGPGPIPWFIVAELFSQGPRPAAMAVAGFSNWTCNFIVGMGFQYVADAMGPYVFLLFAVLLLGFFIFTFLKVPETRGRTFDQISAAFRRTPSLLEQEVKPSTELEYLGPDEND

[5] = target: T2, Solute carrier family 2, facilitated glucose transporter member 1; assay: Competitive inhibition of GLUT1 (unknown origin) expressed in CHO cells assessed as reduction in 2-[1,2-3H]deoxy-D-glucose uptake measured for 30 secs by double reciprocal plot analysis; assay type: cell-based
[6] = target: T3, Solute carrier family 2, facilitated glucose transporter member 4; assay: Inhibition of GLUT4 in mouse 3T3L1 cells assessed as reduction in insulin-stimulated 2-deoxy-D-[14C]glucose uptake; assay type: cell-based
[7] = target: T2, Solute carrier family 2, facilitated glucose transporter member 1; assay: Competitive inhibition of GLUT1 in human HL60 cells assessed as reduction in 2-[1,2-3H]deoxy-D-glucose uptake measured for 30 secs by double reciprocal plot analysis; assay type: cell-based
[8] = target: T2, Solute carrier family 2, facilitated glucose transporter member 1; assay: Competitive inhibition of glucose displaceable binding of [4-3H]cytochalasin B to GLUT1 in human erythrocyte membranes after 10 mins by double reciprocal plot analysis; assay type: cell membranes
[9] = Non-competitive inhibition of glucose transporter in HTR-8/SVneo cells assessed as reduction in [3H]DG uptake preincubated for 20 mins followed by [3H]DG addition after 10 mins by liquid scintillation counting method; assay type: cell-based; details: Homo sapiens
[10] = target: T2, Solute carrier family 2, facilitated glucose transporter member 1; assay: Inhibition of GLUT1-mediated glucose uptake in human A549 cells assessed as reduction in ATP synthesis up to 30 mins in presence of mitochondrial function blocker antimycin A; assay type: cell-based
[11] = target: T2, Solute carrier family 2, facilitated glucose transporter member 1; assay: Non-competitive inhibition of GLUT1-mediated facilitative uptake of [3H]-2-deoxy-D-glucose in human erythrocyte membranes; assay type: cell membranes
[12] = target: T2, Solute carrier family 2, facilitated glucose transporter member 1; assay: Inhibition of GLUT1 (unknown origin)-mediated glucose uptake expressed in CHO-K1 cells assessed as reduction in ATP synthesis up to 30 mins in presence of mitochondrial function blocker antimycin A; assay type: cell-based
[13] = target: T4, Solute carrier family 2, facilitated glucose transporter member 4 (Rattus norvegicus, UniProt P19357); assay: Competitive inhibition of GLUT4 in Wistar rat adipocytes assessed as reduction in insulin-stimulated 3-O-[3H]methyl-D-glucose uptake measured for 30 secs by Lineweaver-Burk plot analysis; assay type: cell-based
T4 sequence (P19357 whole entry): T3 sequence (P14142 whole entry) with D11E, R17Q, L208I, I218L, M273L, S316L, G320E, A379S, K467R, A482T

[14] = target: T5, Solute carrier family 2, facilitated glucose transporter member 2 (Homo sapiens, UniProt P11168); assay: Inhibition of human GLUT2 expressed in Xenopus laevis oocytes assessed as reduction in [3H] 2-deoxyglucose uptake by scintillation spectrometric method; assay type: cell-based
T5 sequence (P11168 whole entry): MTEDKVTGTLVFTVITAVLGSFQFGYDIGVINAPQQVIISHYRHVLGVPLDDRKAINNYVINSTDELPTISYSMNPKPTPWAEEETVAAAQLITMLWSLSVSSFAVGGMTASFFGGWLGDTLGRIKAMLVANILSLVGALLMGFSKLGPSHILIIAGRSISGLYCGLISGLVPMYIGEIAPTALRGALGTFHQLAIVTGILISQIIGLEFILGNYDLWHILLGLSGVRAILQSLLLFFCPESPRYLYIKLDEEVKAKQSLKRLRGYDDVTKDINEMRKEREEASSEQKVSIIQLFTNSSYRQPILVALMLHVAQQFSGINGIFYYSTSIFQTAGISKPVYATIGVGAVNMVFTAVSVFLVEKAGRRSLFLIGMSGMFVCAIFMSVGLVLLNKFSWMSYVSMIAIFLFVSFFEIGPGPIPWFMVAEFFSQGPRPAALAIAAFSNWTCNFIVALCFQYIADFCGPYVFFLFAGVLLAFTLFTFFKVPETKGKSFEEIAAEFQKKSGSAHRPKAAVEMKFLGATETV

[15] = target: T5, Solute carrier family 2, facilitated glucose transporter member 2; assay: Inhibition of human GLUT2 expressed in Xenopus laevis oocytes assessed as reduction in [14C]fructose uptake by scintillation spectrometric method; assay type: cell-based
[16] = tested on: A2780S; assay: Cytotoxicity against human A2780S cells; assay type: functional, cell-based
[17] = tested on: A2780cisR; assay: Cytotoxicity against human A2780cisR cells; assay type: functional, cell-based
[18] = target: T2, Solute carrier family 2, facilitated glucose transporter member 1; assay: Inhibition of GLUT1 in human A431 cells assessed as reduction in 2-[1,2-3H]deoxy-D-glucose uptake measured after 30 mins by liquid scintillation counting method; assay type: cell-based

pIC50 [1]: 7.05 | pIC50 [2]: 6.85
SMILES: COc1ccc(CC(=O)N[C@@H](Cc2ccccc2Br)C(=O)N[C@@H](C)c2ccccc2)cc1

SMILES: O=C(CCCc1ccc(N(CCCl)CCCl)cc1)OC[C@H]1OC(O)[C@H](O)[C@@H](O)[C@@H]1O (some centres not stated)
pIC50 [3]: 4.19

pKi [4]: 3.94
SMILES: COc1cc([C@H]2Oc3cc(-c4oc5cc(O)cc(O)c5c(=O)c4O)ccc3O[C@@H]2CO)ccc1O

pIC50 [3]: 1.49
SMILES: CS(=O)(=O)O[C@H]1[C@H](O)[C@@H](O)C(O)O[C@@H]1CO (some centres not stated)

pKi [5]: 5.15 | pIC50 [6]: 4.70 | pKi [7]: 5.15 | pKi [8]: 5.15
SMILES: O=c1c(-c2ccc(O)cc2)coc2cc(O)cc(O)c12 [GENISTEIN]

pIC50 [9]: 5.45
SMILES: COc1cc(O)c(CC=C(C)C)c(O)c1C(=O)/C=C/c1ccc(O)cc1 [XANTHOHUMOL]

pIC50 [10]: 5.52 | pKi [11]: 6.10 | pIC50 [12]: 6.00
SMILES: CCOC(=O)[C@@]12CN(C(=O)OC(C)(C)C)CC=C1N(CCc1ccc(OC)c(OC)c1)C(=O)[C@H]2CC(=O)NCc1cccc2ccccc12

SMILES: O=c1c(O)c(-c2ccc(O)c(O)c2)oc2cc(O)cc(O)c12 [QUERCETIN]
pKi [13]: 4.80 | pIC50 [14]: 4.77 to 4.92 | pIC50 [15]: 4.77 to 4.92

SMILES: CC(=O)N[C@H](C(=O)N[C@H]1C(O)O[C@H](CO)[C@@H](O)[C@@H]1O)C(C)(C)SN=O (some centres not stated)
pIC50 [16]: 8.38 | pIC50 [17]: 6.42

pIC50 [10]: 5.00 | pKi [11]: 5.92 | pIC50 [12]: 5.70
SMILES: CCOC(=O)[C@@]12CCCCC/C=C\1N(Cc1cccc3ccccc13)C(=O)[C@H]2CC(=O)N1CCN(C(=O)c2ccco2)CC1

pIC50 [18]: 8.31
SMILES: C/C=C(\C)[C@H](O[C@@H]1O[C@H](CO)[C@@H](O)[C@H](O)[C@H]1O)[C@H](C)/C=C(C)/C=C/C/C(C)=C/Cc1nc(OC)c(OC)c(O)c1C
